According to patent US20220009920A1 (GB005, Inc., priority 2020, published 2022):

Key:
Experiment in all cases: Large panel kinase profiling
Assay type in all cases: biochemical
Conditions in all cases: 1 μM test article, 1 mM ATP
BMX = molecular target: T1, BMX (Homo sapiens, UniProt P51813)
T1 sequence (P51813 1-675): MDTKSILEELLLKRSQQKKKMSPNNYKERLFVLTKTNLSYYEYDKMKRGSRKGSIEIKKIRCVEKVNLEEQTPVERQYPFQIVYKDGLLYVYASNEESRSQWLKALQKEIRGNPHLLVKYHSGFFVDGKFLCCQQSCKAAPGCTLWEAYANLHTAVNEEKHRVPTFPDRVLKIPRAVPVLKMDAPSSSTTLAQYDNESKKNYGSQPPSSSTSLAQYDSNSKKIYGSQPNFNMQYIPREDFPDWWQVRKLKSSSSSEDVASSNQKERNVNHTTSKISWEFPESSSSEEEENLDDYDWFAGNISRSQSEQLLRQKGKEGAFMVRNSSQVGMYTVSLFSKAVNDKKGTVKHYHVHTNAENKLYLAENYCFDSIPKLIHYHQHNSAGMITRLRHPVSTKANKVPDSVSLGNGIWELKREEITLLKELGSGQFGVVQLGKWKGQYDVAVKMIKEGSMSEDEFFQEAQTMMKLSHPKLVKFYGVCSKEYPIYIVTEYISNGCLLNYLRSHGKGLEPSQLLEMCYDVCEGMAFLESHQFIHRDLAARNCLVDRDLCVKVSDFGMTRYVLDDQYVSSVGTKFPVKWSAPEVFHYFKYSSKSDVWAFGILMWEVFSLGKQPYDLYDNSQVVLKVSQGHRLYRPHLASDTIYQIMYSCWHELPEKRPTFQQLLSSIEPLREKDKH
Method in brief: (§1)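 Reactions contain 1 mM ATP and 1 μM test article; the CSox peptide sensor reports phosphorylation as fluorescence gain. Temperature is held at 30° C. while signal (360 nm excitation, 485 nm emission) is recorded every 1 min.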

CAMKK1 = molecular target: T2, CAMKK1 (Homo sapiens, UniProt Q8N5S9)
T2 construct: AssayQuant Technologies, Inc. (ran the panel)
Method in brief: as §1

DYRK1A = molecular target: T3, DYRK1A (Homo sapiens, UniProt Q13627)
T3 construct: AssayQuant Technologies, Inc. (service laboratory)
Method in brief: as §1

FGR = FGR (Homo sapiens, UniProt P09769)
FGR, sequence (P09769 whole entry, species assumed): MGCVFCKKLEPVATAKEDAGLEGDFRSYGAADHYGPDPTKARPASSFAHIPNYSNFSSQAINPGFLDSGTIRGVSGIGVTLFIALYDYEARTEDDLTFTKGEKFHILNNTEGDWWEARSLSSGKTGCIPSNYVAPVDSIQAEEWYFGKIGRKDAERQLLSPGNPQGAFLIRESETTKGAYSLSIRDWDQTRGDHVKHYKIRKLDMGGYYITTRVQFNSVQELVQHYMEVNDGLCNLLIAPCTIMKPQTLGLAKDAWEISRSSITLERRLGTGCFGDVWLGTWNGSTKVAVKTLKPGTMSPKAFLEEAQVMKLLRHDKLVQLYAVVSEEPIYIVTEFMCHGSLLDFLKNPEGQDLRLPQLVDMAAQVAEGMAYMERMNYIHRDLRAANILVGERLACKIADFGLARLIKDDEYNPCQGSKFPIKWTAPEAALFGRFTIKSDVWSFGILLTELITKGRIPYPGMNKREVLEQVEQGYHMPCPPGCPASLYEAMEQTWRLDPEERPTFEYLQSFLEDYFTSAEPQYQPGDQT
Method in brief: as §1

FYNB = molecular target: T4, FYNB (Homo sapiens, UniProt P06241)
T4 construct: AssayQuant Technologies, Inc. (service provider)
T4 sequence (P06241 1-534 isoform P06241-2): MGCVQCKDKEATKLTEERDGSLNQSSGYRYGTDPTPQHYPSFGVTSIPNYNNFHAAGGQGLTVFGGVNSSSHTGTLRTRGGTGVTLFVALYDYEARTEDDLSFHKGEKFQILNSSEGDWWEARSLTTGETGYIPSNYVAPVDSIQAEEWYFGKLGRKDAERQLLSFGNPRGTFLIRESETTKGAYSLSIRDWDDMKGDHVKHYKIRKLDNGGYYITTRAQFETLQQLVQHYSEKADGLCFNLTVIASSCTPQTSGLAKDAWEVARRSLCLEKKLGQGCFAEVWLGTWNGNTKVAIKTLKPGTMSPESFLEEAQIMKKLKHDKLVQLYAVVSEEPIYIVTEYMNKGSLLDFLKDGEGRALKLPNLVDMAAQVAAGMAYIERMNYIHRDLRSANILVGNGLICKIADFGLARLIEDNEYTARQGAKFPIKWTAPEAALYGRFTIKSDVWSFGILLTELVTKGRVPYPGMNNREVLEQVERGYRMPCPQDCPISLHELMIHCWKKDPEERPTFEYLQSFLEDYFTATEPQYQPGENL
Method in brief: as §1

GSK3B = molecular target: T5, GSK3B (Homo sapiens, UniProt P49841)
T5 construct: AssayQuant Technologies, Inc. (service provider)
Method in brief: as §1

IGF1R = molecular target: T6, IGF1R (Homo sapiens, UniProt P08069)
T6 construct: AssayQuant Technologies, Inc. (service provider)
T6 sequence (P08069 31-1367, species assumed): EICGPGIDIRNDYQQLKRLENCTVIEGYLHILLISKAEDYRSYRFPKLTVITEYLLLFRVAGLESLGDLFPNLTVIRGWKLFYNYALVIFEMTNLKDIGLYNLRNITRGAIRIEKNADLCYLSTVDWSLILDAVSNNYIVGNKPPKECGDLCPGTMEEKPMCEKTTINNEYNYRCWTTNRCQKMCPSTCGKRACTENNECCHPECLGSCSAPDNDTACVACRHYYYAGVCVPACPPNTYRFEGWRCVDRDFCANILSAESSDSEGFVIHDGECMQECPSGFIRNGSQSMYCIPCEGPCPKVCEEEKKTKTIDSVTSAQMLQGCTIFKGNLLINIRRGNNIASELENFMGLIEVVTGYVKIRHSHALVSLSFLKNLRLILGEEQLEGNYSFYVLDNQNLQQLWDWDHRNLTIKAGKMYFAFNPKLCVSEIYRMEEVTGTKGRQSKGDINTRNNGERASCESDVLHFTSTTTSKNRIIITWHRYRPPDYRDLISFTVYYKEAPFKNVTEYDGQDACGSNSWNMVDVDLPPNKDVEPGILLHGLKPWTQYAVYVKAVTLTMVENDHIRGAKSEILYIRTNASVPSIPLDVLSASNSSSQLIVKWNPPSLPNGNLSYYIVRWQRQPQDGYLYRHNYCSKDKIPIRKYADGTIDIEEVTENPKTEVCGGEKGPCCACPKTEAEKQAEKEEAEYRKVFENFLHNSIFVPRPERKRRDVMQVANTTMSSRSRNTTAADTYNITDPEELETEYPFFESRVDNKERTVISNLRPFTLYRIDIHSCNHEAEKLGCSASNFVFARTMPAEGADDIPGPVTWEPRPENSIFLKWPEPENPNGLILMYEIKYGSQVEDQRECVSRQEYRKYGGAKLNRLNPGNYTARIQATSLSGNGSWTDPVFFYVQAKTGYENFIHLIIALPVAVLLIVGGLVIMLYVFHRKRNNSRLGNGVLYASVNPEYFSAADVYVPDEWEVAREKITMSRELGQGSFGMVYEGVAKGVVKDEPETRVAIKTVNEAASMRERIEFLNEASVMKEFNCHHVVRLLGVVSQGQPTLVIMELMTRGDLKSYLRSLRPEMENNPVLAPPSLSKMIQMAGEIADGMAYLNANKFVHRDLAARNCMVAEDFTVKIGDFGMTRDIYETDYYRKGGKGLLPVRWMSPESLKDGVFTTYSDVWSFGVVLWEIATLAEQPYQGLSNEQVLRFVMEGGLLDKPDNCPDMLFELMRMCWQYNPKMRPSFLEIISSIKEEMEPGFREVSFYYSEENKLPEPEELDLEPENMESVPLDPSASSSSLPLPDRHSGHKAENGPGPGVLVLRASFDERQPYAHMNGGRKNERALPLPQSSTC
Method in brief: as §1

JAK3(JH1) = molecular target: T7, JAK3(JH1) (Homo sapiens, UniProt P52333)
T7 construct: JAK3(JH1)
T7 sequence (P52333 822-1111 limits assumed, species assumed): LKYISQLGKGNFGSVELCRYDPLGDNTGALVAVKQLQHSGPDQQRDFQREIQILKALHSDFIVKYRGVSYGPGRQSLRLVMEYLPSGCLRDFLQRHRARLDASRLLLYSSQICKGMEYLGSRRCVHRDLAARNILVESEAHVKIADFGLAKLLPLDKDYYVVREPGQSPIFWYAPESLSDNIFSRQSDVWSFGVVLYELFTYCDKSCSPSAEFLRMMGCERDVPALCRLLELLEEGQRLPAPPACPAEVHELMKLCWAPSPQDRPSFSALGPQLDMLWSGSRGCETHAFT
Method in brief: as §1

PDGFRA = PDGFRA (Homo sapiens, UniProt P16234)
PDGFRA, sequence (P16234 24-1089, species assumed): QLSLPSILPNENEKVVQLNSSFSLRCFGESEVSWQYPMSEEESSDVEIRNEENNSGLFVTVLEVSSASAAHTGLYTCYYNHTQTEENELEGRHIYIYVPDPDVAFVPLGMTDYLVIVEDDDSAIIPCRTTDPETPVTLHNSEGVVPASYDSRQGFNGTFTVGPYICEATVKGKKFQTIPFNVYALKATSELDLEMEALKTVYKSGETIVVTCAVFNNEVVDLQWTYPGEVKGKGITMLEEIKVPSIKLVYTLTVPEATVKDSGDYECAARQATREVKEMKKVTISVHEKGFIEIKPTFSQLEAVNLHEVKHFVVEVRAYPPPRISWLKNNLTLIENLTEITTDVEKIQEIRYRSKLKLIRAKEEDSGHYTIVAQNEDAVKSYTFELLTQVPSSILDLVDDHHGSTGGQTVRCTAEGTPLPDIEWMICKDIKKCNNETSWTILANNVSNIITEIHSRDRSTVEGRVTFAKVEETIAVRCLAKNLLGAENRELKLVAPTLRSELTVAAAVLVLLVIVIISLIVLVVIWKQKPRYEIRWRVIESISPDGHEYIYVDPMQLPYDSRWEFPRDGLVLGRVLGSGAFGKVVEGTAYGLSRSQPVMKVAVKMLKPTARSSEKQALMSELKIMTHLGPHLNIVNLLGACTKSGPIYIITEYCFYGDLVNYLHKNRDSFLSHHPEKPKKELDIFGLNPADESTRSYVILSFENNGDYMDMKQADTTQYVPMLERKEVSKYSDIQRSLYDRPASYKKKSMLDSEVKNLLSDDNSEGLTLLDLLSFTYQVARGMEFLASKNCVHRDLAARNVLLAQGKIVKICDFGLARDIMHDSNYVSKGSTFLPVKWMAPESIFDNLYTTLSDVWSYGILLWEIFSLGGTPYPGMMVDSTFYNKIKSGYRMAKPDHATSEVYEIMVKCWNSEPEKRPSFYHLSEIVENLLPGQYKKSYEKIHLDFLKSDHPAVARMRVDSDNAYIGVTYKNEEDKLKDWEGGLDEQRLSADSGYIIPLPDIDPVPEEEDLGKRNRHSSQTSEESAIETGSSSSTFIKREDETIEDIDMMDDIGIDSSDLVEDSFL
Method in brief: as §1

PRKCB1/PKCB1 = PRKCB1/PKCB1 (Homo sapiens, UniProt P05771)
PRKCB1/PKCB1, sequence (P05771 whole entry): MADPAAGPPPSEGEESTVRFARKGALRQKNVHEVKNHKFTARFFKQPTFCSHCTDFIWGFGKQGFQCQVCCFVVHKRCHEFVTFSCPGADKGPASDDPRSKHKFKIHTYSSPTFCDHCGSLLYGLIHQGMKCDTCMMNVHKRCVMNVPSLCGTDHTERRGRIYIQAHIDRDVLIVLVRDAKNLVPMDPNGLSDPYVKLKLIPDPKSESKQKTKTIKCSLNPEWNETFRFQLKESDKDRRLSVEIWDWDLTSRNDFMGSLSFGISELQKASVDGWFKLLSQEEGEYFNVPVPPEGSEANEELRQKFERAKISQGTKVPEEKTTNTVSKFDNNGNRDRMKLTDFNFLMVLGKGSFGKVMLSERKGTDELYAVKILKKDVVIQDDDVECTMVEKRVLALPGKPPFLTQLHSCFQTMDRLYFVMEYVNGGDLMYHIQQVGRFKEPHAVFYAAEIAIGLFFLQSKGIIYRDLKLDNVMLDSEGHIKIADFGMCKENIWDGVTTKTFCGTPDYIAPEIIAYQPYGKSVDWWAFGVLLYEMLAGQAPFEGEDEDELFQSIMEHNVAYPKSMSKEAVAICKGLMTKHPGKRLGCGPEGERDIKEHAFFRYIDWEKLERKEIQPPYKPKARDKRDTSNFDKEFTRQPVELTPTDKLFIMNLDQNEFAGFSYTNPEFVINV
Method in brief: as §1

RIPK2 = RIPK2 (Homo sapiens, UniProt O43353)
RIPK2, sequence (O43353 whole entry, species assumed): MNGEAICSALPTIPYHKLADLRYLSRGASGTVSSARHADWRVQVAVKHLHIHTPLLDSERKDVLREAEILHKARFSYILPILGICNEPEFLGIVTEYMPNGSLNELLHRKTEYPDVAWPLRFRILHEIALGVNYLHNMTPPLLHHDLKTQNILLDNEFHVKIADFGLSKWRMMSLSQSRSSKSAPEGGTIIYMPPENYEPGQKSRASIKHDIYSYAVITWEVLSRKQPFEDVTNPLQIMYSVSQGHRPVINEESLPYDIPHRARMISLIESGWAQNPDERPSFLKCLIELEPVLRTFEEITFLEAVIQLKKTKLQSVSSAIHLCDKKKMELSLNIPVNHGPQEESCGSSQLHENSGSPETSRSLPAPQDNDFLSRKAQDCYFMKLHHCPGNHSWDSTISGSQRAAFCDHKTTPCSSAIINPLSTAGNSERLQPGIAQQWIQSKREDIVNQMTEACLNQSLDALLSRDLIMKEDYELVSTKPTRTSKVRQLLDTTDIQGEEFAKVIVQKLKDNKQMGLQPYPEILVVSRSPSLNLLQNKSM
Method in brief: as §1

STK17B/DRAK2 = molecular target: T8, STK17B/DRAK2 (Homo sapiens, UniProt O94768)
T8 construct: AssayQuant Technologies, Inc. (contract assay)
T8 sequence (O94768 1-372): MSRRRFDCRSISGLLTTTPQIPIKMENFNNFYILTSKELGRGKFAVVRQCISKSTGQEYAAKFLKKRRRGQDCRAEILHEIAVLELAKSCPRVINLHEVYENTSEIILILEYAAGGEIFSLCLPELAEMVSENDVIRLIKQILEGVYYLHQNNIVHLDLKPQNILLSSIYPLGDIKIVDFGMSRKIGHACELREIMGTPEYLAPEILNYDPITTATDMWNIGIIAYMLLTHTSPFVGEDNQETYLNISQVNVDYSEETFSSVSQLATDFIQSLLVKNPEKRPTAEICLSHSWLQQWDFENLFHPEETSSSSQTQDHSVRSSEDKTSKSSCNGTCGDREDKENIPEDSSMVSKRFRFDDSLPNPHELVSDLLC
Method in brief: as §1

STK3/MST2 = molecular target: T9, STK3/MST2 (Homo sapiens, UniProt Q13188)
T9 construct: AssayQuant Technologies, Inc. (contract assay)
T9 sequence (Q13188 1-491): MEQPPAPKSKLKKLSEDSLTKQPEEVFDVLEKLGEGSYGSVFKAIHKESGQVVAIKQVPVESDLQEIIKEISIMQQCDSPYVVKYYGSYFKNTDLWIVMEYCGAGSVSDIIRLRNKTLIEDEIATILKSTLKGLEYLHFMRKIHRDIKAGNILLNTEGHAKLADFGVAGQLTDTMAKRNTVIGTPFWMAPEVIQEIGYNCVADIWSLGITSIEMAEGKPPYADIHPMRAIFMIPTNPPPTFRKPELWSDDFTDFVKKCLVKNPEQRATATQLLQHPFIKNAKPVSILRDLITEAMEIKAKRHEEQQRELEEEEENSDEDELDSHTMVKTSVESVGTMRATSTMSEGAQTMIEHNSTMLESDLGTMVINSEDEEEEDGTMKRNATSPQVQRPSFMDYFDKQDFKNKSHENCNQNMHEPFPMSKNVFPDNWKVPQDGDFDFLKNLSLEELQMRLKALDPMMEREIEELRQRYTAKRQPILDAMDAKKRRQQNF
Method in brief: as §1

| Structure (SMILES) | inhibition at 1 µM (BMX) | inhibition at 1 µM (CAMKK1) | inhibition at 1 µM (DYRK1A) | inhibition at 1 µM (FGR) | inhibition at 1 µM (FYNB) | inhibition at 1 µM (GSK3B) | inhibition at 1 µM (IGF1R) | inhibition at 1 µM (JAK3(JH1)) | inhibition at 1 µM (PDGFRA) | inhibition at 1 µM (PRKCB1/PKCB1) | inhibition at 1 µM (RIPK2) | inhibition at 1 µM (STK17B/DRAK2) | inhibition at 1 µM (STK3/MST2) |
| --- | --- | --- | --- | --- | --- | --- | --- | --- | --- | --- | --- | --- | --- |
| C=CC(=O)N1CCCC(c2c(F)cc(C(N)=O)c3[nH]c4c(c23)CCCCC4)C1 (single isomer, unassigned) [Compound 5-6] | 42% | 22.2% | 20.4% | 17.1% | 21% | -6% | -16.7% | 2% | -26.6% | 8.6% | 7.1% | 0.3% | -13.7% |
| C=CC(=O)N1CCC[C@@H](c2c(F)cc(C(N)=O)c3[nH]c4c(c23)CCC4)C1 [Compound 10-2, (S)-8-(1-acryloylpiperidin-3-yl)-7-fluoro-1,2,3,4-tetrahydrocyclo-penta[b]indole-5-carboxamide] | 65.2% | 3.7% | 7.2% | 3.6% | -36.2% | -12.5% | -26.1% | 2.4% | 2.1% | -9.4% | -45.4% | -23.7% | -14.4% |
| C=CC(=O)N1CCC[C@@H](c2c(F)cc(C(N)=O)c3[nH]c4c(c23)CC2(CC4)CC2)C1 [Compound 6-2, (S)-5-(1-acryloylpiperidin-3-yl)-6-fluoro-1,2,4,9-tetrahydrospiro[carbazole-3,1′-cyclopropane]-8-carboxamide] | 86% | 5.7% | -2.2% | -25.9% | -20% | 18.7% | -11.6% | 12.5% | 23.9% | 8.9% | -31.3% | -26.9% | -25.3% |
